Data published in patent US10905683B2, “Compositions and uses of amidine derivatives” (BIOCRYST PHARMACEUTICALS, INC., priority 2014, dated 2021).

Legend:
[1] = Caco-2 bi-directional permeability, absence and presence of P-gp inhibitor verapamil; format: in vitro ADME; conditions: human; Caco-2, P-gp inhibitor absent
Experimental: (§1) The Caco-2 bi-directional permeability of the compound of Example 1 was evaluated in the absence and presence of a known P-gp inhibitor, verapamil.

Caco-2 = experiment: as above; format: in vitro ADME
Experimental: as §1

plasma kallikrein = target: T1, plasma kallikrein (Homo sapiens, UniProt P03952); experiment: Plasma kallikrein activity in subject samples, contact activation assay with fluorogenic substrate; format: in vivo
T1 construct: normal levels of C1INH present in healthy subject plasma samples; from tissue; host or cells: plasma samples of healthy human subjects
T1 sequence (P03952 391-638 limits assumed): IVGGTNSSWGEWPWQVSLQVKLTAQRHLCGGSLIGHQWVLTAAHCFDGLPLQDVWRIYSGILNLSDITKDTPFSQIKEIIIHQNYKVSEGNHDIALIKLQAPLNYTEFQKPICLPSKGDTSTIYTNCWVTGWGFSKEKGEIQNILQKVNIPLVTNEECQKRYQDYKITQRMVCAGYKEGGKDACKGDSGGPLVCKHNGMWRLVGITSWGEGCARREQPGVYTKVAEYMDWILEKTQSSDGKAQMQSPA
T1 sequence (P03952 20-390 partner limits assumed): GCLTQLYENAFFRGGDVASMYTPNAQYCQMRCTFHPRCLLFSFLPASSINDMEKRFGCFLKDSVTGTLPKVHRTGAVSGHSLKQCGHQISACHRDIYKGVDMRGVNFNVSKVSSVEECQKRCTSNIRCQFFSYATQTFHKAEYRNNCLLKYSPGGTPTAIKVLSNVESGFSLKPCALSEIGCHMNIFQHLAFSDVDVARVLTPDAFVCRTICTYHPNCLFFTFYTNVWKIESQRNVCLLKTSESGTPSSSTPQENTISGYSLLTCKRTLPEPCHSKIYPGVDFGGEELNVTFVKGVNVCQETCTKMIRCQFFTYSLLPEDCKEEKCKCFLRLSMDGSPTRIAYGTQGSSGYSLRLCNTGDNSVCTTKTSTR
Experimental: Plasma kallikrein activity was assessed in subject samples with an exploratory contact activation assay using a fluorogenic artificial substrate for kallikrein. In this assay, the contact pathway is activated by addition of ellagic acid, and amidolytic activity is measured. Results are expressed as percent inhibition compared to subject baseline samples and reflect inhibition additional to that resulting from the activity of normal levels of C1INH present in healthy subject plasma samples. Analysis of plasma kallikrein activity following single doses of the compound of Example 1 was performed through 12 hours postdose. […] The time course of inhibition generally followed the plasma pharmacokinetics of the compound. The greatest effect was seen around the time of Cmax. Plasma kallikrein inhibition largely returned to baseline at 12 hours postdose, when plasma concentrations of the compound of Example 1 were low (generally <10 ng/mL).
Plasma kallikrein activity profiles were measured in Part 2 subjects on day 7 of dosing and the results were expressed as percent inhibition compared to the activity present in the Day 1 predose plasma sample. […] Kallikrein inhibition was observed through the last dosing interval on day 7 compared to placebo (p<0.0001).

In the case of `C=Cc1cc(C(=O)Nc2ccc(C(=N)N)cc2)c(-c2ccc(C(=O)NCC3CC3)nc2C(=O)O)cc1OC` [Example 1, 3-[2-(4-carbamimidoyl-phenylcarbamoyl)-5-methoxy-4-vinyl-phenyl]-6-(cyclopropylmethyl-carbamoyl)-pyridine-2-carboxylic acid], the Papp A→B [1] is reported as 0.5 ×10⁻⁶ cm/s, the Papp B→A [1] is reported as 0.5 ×10⁻⁶ cm/s and the efflux ratio [1] is reported as 0.9. The permeability class (Caco-2; Caco-2 bi-directional) was “low permeability compound”, the P-gp substrate (Caco-2; Caco-2 with and without verapamil) was “does not appear to be a substrate of P-gp” and the “Kallikrein inhibition compared to Day 1 predose” value (plasma kallikrein; beginning and end of the dosing interval on Day 7, two highest dose cohorts (400, 800 mg q8h), FIG. 11) was 30-40%. For the same molecule, the “change of plasma kallikrein activity in comparison to placebo” value (plasma kallikrein; single doses of 50-250 mg) was “modest but real changes”.
